Measurements taken from US7173018B2, “Phospholipid derivatives of non-steroidal anti-inflammatory drugs” (D-Pharm, Ltd., priority 1998, dated 2007).
≈ marks a conversion by molar mass, not a printed value.

Legend:
[1] = In vitro cleavage of DP-DFC to free diclofenac in rat liver homogenate; format: in vitro ADME; conditions: 37° C., up to 6 hours
Procedure: (§1) The ability of the compounds of the invention to be cleaved to yield free diclofenac, was studied in vitro in homogenates of rat brain and liver. Two compounds were tested: the prodrug 1-Stearoyl-2-{4-[2-(2,6-dichloroanilino)-phenylacetamido]butanoyl}-sn-glycero-3-phosphocholine (DP-DFC; Z=3), and the compound 1-Stearoyl-2-{3-[2-(2,6-dichloroanilino)-phenylacetamido]propanoyl}-sn-glycero-3-phosphatidylcholine (DP-DFC; Z=2), comprising, respectively, a bridging group having a total of 4 and 3 carbon atoms.
(§2) Liver and brain were surgically removed, under pentobarbitone anesthesia, from male Sabra rats weighing 250–280 g. About 1–1.5 g samples from each tissue were homogenized in PBS pH=7.4 (Dulbecco) at a ratio of 1:9 w/v of tissue to buffer.
(§3) DP-DFC was added to each homogenate to a final concentration of 40 μg/ml. The mixtures were incubated at 37° C. in shaking for 1, 2, 3 and 6 hours, and then were placed on ice to stop the reaction.
(§4) The amounts of free diclofenac in 1 ml samples from either the brain or liver homogenates were determined by reverse phase HPLC assay. The amount of protein in each sample was assayed by the Lowry method.
(§5) The result for each time point represents the average of five repetitions using tissues from five individual animals.
(§6) In order to evaluate the effect of temperature on the reaction, a parallel set of incubations was carried out at 4° C.

[2] = In vitro cleavage of DP-DFC to free diclofenac in rat brain homogenate; format: in vitro ADME; conditions: for Cleavage of diclofenac from its lipid conjugate: brain homogenate, 37° C., up to 6 hours
Procedure: as §1, §2, §3, §4, §5, §6

[3] = Octanol/saline distribution (partition coefficient Pc), shake-flask technique; conditions: for log Pc (octanol/saline distribution coefficient): 22° C., shake-flask
Procedure: In addition, the partition coefficient (Pc) values for these compounds, i.e their distribution ratios between the organic and the aqueous phases (octanol/saline), were calculated.
The distribution of the compounds between the organic and the aqueous phases was measured by the shake-flask technique. Five milliliters of octanol containing about 3 mg of the studied compound were mixed with 5 ml saline. The mixture was shaken overnight at 22° C. before the octanol and saline phases were separated. One ml from each phase was dissolved into an appropriate volume of ethanol so that the optical absorption of the obtained solution is in range of 0.1 to 1.0.
The coefficient Pc is calculated by the following ratio:
[formula] where Aoct is the optical absorption, at λmax, of the ethanol solution in which one ml of octanol phase is dissolved, V1 is the volume of this ethanol solution and l1 is the width (cm) of the cuvette used for measurement of the optical absorption.
Asal is the optical absorption, at λmax, of the ethanol solution in which the one ml of saline phase is dissolved, V2 is the volume of this ethanol solution and l2 is the width (cm) of the cuvette used for measurement of the optical absorption.

[4] = Solubility measurements of lipid derivatives in water, saline, ethanol and octanol; conditions: for solubility: 22 °C; for Solubility (mg/ml) Saline / Solubility (mg/ml) Water: 22° C.; a) gel, b) suspension obtained after filtration through 0.45 μm filter
Procedure: The solubility of several lipid derivatives of diclofenac, indomethacin, ibuprofen, naproxen and 6-methoxy-2-naphthylacetic acid was determined at room temperature (22° C.) in aqueous solutions (water and saline) and in organic solutions (ethanol and octanol). In addition, the partition coefficient (Pc) values for these compounds, i.e their distribution ratios between the organic and the aqueous phases (octanol/saline), were calculated.

Row | SMILES | Cleavage of diclofenac from its lipid conjugate [1] | Cleavage of diclofenac from its lipid conjugate [2] | logD [3] | solubility ([4]; saline, saline or isotonic) [µg/mL] | solubility ([4]; water) [µg/mL] | Cleavage of prodrug to DFC on cooling to 4° C. ([2]; parallel set of incubations in homogenates at 4° C. (data not shown)) | log Pc (octanol/saline distribution coefficient) [3] | Solubility (mg/ml) Saline [4] | Solubility (mg/ml) Water [4]
1 | CCCCCCCCCCCCCCCCCC(=O)OC[C@H](COP(=O)([O-])OCC[N+](C)(C)C)OC(=O)CCNC(=O)Cc1ccccc1Nc1c(Cl)cccc1Cl [DCF n=2, 1-Stearoyl-2-{3-[2-(2,6-dichloroanilino)phenylacetamido]propanoyl}-sn-glycero-3-phosphocholine] | not | not | 2.8 ± 0.1 | 2 (≈ 2.29 µM) | 3 (≈ 3.44 µM) | – | – | – | –
2 | CCCCCCCCCCCCCCCCCC(=O)OC[C@H](COP(=O)([O-])OCC[N+](C)(C)C)OC(=O)CCCNC(=O)Cc1ccccc1Nc1c(Cl)cccc1Cl [DCF n=3, 1-Stearoyl-2-{4-[2-(2,6-dichloroanilino)phenylacetamido]butanoyl}-sn-glycero-3-phosphocholine] | significant cleavage | significant cleavage | – | 2 (≈ 2.25 µM) | 2 (≈ 2.25 µM) | completely inhibited | ≧3 | – | –
3 | CCCCCCCCCCCCCCCCCC(=O)OC[C@H](COP(=O)([O-])OCC[N+](C)(C)C)OC(=O)CCCCNC(=O)Cc1ccccc1Nc1c(Cl)cccc1Cl [DCF n=4, 1-Stearoyl-2-{5-[2-(2,6-dichloroanilino)phenylacetamido]valeroyl}-sn-glycero-3-phosphocholine] | – | – | – | 2 (≈ 2.22 µM) | 2 (≈ 2.22 µM) | – | ≧3 | – | –
4 | CCCCCCCCCCCCCCCCCC(=O)OC[C@H](COP(=O)([O-])OCC[N+](C)(C)C)OC(=O)CCCCCCCNC(=O)Cc1ccccc1Nc1c(Cl)cccc1Cl [DCF n=7, 1-Stearoyl-2-{8-[2-(2,6-dichloroanilino)phenylacetamido]octanoyl}-sn-glycero-3-phosphocholine] | – | – | – | 1 (≈ 1.06 µM) | 1 (≈ 1.06 µM) | – | ≧3 | – | –
5 | CCCCCCCCCCCCCCCCCC(=O)OC[C@H](COP(=O)([O-])OCC[N+](C)(C)C)OC(=O)CCNC(=O)[C@@H](C)c1ccc2cc(OC)ccc2c1 [Nap n=2, 1-Stearoyl-2-{3-[(S)-6-methoxy-α-methyl-2-naphtaleneacetamido]propanoyl}-sn-glycero-3-phosphocholine] | – | – | – | – | – | – | ≧3 | 0.06^a) mg/ml | 0.01^a) mg/ml
6 | CCCCCCCCCCCCCCCCCC(=O)OC[C@H](COP(=O)([O-])OCC[N+](C)(C)C)OC(=O)CCCNC(=O)[C@@H](C)c1ccc2cc(OC)ccc2c1 [Nap n=3, 1-Stearoyl-2-{4-[(S)-6-methoxy-α-methyl-2-naphtaleneacetamido]butanoyl}-sn-glycero-3-phosphocholine] | – | – | – | – | – | – | ≧3 | 0.09^a) mg/ml | 0.12^a) mg/ml
7 | CCCCCCCCCCCCCCCCCC(=O)OC[C@H](COP(=O)([O-])OCC[N+](C)(C)C)OC(=O)CCCCCNC(=O)[C@@H](C)c1ccc2cc(OC)ccc2c1 [Nap n=5, 1-Stearoyl-2-{6-[(S)-6-methoxy-α-methyl-2-naphtaleneacetamido]hexanoyl}-sn-glycero-3-phosphocholine] | – | – | – | – | – | – | ≧3 | 0.2^a) mg/ml | 0.2^a) mg/ml

Second part, led by results:

Row | Cleavage of diclofenac from its lipid conjugate [1] | Cleavage of diclofenac from its lipid conjugate [2] | logD [3] | solubility ([4]; saline, saline or isotonic) [µg/mL] | solubility ([4]; water) [µg/mL] | Cleavage of prodrug to DFC on cooling to 4° C. ([2]; parallel set of incubations in homogenates at 4° C. (data not shown)) | log Pc (octanol/saline distribution coefficient) [3] | SMILES | Solubility (mg/ml) Saline [4] | Solubility (mg/ml) Water [4]
8 | – | – | – | < 1 | < 1 | – | ≧2.5 | CCCCCCCCCCCCCCCCCC(=O)OC[C@H](COP(=O)([O-])OCC[N+](C)(C)C)OC(=O)CCCCCCCCCCCNC(=O)Cc1ccccc1Nc1c(Cl)cccc1Cl [DCF n=11, 1-Stearoyl-2-{12-[2-(2,6-dichloroanilino)phenylacetamido]dodecanoyl}-sn-glycero-3-phosphocholine] | – | –
9 | – | – | 1.8 | 300 (≈ 383 µM) | 200 (≈ 255 µM) | – | – | CCCCCCCCCCCCCCCCCC(=O)OC[C@H](COP(=O)([O-])OCC[N+](C)(C)C)OC(=O)CCNC(=O)C(C)c1ccc(CC(C)C)cc1 (stereo partly drawn) [Ibu n=2, 1-Stearoyl-2-{3-[α-methyl-4-(2-methylpropyl)benzeneacetamido]propanoyl}-sn-glycero-3-phosphocholine] | – | –
10 | – | – | – | 500 (≈ 606 µM) | 500 (≈ 606 µM) | – | ≧3 | CCCCCCCCCCCCCCCCCC(=O)OC[C@H](COP(=O)([O-])OCC[N+](C)(C)C)OC(=O)CCCCCNC(=O)C(C)c1ccc(CC(C)C)cc1 (stereo partly drawn) [Ibu n=5, 1-Stearoyl-2-{6-[α-methyl-4-(2-methylpropyl)benzeneacetamido]hexanoyl}-sn-glycero-3-phosphocholine] | – | –
11 | – | – | 2.5 | ~1500 (≈ 1610 µM) | < 900 | – | – | CCCCCCCCCCCCCCCCCC(=O)OC[C@H](COP(=O)([O-])OCC[N+](C)(C)C)OC(=O)CCNC(=O)Cc1c(C)n(C(=O)c2ccc(Cl)cc2)c2ccc(OC)cc12 [Indo n=2, 1-Stearoyl-2-{3-[1-(p-chlorobenzoyl)-5-methoxy-2-methyl-3-indolylacetamido]propanoyl}-sn-glycero-3-phosphocholine] | – | –
12 | – | – | 2.5 | ~1500 (≈ 1580 µM) | < 600 | – | – | CCCCCCCCCCCCCCCCCC(=O)OC[C@H](COP(=O)([O-])OCC[N+](C)(C)C)OC(=O)CCCNC(=O)Cc1c(C)n(C(=O)c2ccc(Cl)cc2)c2ccc(OC)cc12 [Indo n=3, 1-Stearoyl-2-{4-[1-(p-chlorobenzoyl)-5-methoxy-2-methyl-3-indolylacetamido]butanoyl}-sn-glycero-3-phosphocholine] | – | –
13 | – | – | – | ~100 (≈ 104 µM) | < 10 | – | 2.9 | CCCCCCCCCCCCCCCCCC(=O)OC[C@H](COP(=O)([O-])OCC[N+](C)(C)C)OC(=O)CCCCNC(=O)Cc1c(C)n(C(=O)c2ccc(Cl)cc2)c2ccc(OC)cc12 [Indo n=4, 1-Stearoyl-2-{5-[1-(p-chlorobenzoyl)-5-methoxy-2-methyl-3-indolylacetamido]valeroyl}-sn-glycero-3-phosphocholine] | – | –
14 | – | – | 3.2 | ~10 (≈ 10.2 µM) | < 10 | – | – | CCCCCCCCCCCCCCCCCC(=O)OC[C@H](COP(=O)([O-])OCC[N+](C)(C)C)OC(=O)CCCCCNC(=O)Cc1c(C)n(C(=O)c2ccc(Cl)cc2)c2ccc(OC)cc12 [Indo n=5, 1-Stearoyl-2-{6-[1-(p-chlorobenzoyl)-5-methoxy-2-methyl-3-indolylacetamido]hexanoyl}-sn-glycero-3-phosphocholine] | – | –
15 | – | – | 3.7 | – | ~5 (≈ 4.98 µM) | – | – | CCCCCCCCCCCCCCCCCC(=O)OC[C@H](COP(=O)([O-])OCC[N+](C)(C)C)OC(=O)CCCCCCCNC(=O)Cc1c(C)n(C(=O)c2ccc(Cl)cc2)c2ccc(OC)cc12 [Indo n=7, 1-Stearoyl-2-{8-[1-(p-chlorobenzoyl)-5-methoxy-2-methyl-3-indolylacetamido]octanoyl}-sn-glycero-3-phosphocholine] | – | –
